Biological target: T1, CLOCK PAS–A (murine CLOCK PAS-A domain, mCLOCK) (Mus musculus, UniProt O08785)
T1 sequence (O08785 103-265): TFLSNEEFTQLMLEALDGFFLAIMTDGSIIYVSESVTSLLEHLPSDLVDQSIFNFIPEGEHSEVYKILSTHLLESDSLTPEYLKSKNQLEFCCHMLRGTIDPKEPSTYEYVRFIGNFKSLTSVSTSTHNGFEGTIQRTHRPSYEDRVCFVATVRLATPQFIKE
Test: UV-visible spectrophotometric titration, global nonlinear least squares fit
Type: binding

Kd: 1050 nM
SMILES: C=CC1=C(C)C2=Cc3c(C=C)c(C)c4[n]3[Fe]([Cl])[n]3c(c(C)c(CCC(=O)O)c3=CC3=NC(=C4)C(C)=C3CCC(=O)O)=CC1=N2 [hemin]
